US20050148763A1, “Peg-binding pth or peg-binding pth derivative” (Chugai Seiyaku Kabushiki Kaisha, priority 2002, published 2005)

How the values were obtained:
[1] = Pharmacokinetics and bioavailability in rats by subcutaneous route; type: in vivo
Experimental: (§1) Each sample was adjusted to 80 μg/mL by dilution with 25 mmol/L citrate-phosphate buffer (pH 5.0) containing 100 mmol/L NaCl and 0.05 vol % Tween 20 to give a solution for administration. Male SD rats at 6 weeks of age (CLEA Japan, Inc.) were provided for this experiment. Intravenous injection was performed on rats having polyethylene tubes (SP-31, Natsume Seisakusho Co., Ltd.) inserted into the femoral artery and vein. The solutions thus prepared were each administered at a dose of 1 mL/kg through a polyethylene tube inserted into the femoral vein, and blood was collected through a polyethylene tube inserted into the femoral artery before administration and at 5, 15, 30 and 45 minutes as well as 1, 2, 4, 6, 8 and 24 hours after administration. Subcutaneous administration was performed on rats having polyethylene tubes inserted into the femoral artery. The solutions prepared above were each subcutaneously administered at a dose of 1 mL/kg to the dorsal neck region of the rats, and blood was collected in the same manner as used for intravenous injection. These blood samples were centrifuged to collect plasma and stored at −40° C. until assayed for PTH(1-34) or PEG-PTH(1-34) levels.
(§2) The level of PTH(1-34) or PEG-PTH(1-34) was determined by RIA analysis using a Rat PTH IRMA Kit (Immutopics). A Cobra Quantum Model 5005 gamma counter (Packard) was used to measure radioactivity for each sample. The plasma level of PTH(1-34) or PEG-PTH(1-34) was calculated from a calibration curve prepared using PTH(1-34) or PEG-PTH(1-34). The Winnonlin program Ver. 2.1 (Scientific Consulting Inc.) was used to analyze the time course of changes in the calculated plasma PTH(1-34) or PEG-PTH(1-34) levels (FIG. 3: by intravenous route; FIG. 4: by subcutaneous route) to calculate the following as pharmacokinetic parameters: time required to reach the maximum plasma level (Tmax); maximum plasma level (Cmax); area under the curve of plasma levels (AUC); plasma half-life (t1/2); total body clearance (Cltotal); mean residence time in the body (MRT); and bioavailability (BA). […]

[2] = Pharmacokinetics in rats by intravenous route; type: in vivo; conditions: rat, in vivo, 80 μg/mL at 1 mL/kg
Experimental: as §1, §2

human PTH1 receptors = biological target: T1, human PTH1 receptors (Homo sapiens, UniProt Q03431); experiment: in vitro ability to produce cAMP, HKRK-B7 cells; type: cell-based; conditions: Table 2(1), n=2-3
T1 construct: expressed in transfected cells; host or cells: HKRK-B7 and HKRK-B64 cells (derived from pig kidney LLC-PK1 cells)
T1 sequence (Q03431 27-593): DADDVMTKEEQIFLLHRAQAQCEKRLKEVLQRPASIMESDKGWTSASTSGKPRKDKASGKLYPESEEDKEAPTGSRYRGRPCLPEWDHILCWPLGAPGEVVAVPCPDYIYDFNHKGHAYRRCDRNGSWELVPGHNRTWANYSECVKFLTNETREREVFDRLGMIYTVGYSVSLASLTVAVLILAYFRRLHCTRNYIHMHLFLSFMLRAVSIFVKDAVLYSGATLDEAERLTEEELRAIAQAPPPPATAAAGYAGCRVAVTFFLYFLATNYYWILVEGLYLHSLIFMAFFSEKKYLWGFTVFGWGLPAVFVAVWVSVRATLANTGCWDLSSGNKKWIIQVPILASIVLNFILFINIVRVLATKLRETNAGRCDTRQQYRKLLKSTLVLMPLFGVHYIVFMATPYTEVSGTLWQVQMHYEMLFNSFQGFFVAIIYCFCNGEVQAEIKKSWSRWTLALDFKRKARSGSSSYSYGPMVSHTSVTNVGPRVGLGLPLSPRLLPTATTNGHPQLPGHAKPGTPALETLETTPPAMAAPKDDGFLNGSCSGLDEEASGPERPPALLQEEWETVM
Experimental: (§3) Each PEG-PTH sample was assayed for its ability to produce cAMP (indicative of the increasing effect of PTH on bone mass) as follows. […] These cells were seeded in 96-well plates at 1×10^5 cells/well and incubated overnight. […] After removing the reaction solution, the plates were placed on powdered dry ice to freeze the cells and then removed from the dry ice. The cells were thawed with 50 μL of 50 mM HCl and frozen again on dry ice. The level of intracellular cAMP was determined with a commercially available EIA kit (Biotrak cAMP EIA system, Amersham).

rat PTH1 receptors = biological target: T2, rat PTH1 receptors (Rattus norvegicus, UniProt P25961); experiment: in vitro ability to produce cAMP, EW29 cells; type: cell-based; conditions: Table 2(3), n=2-3
T2 construct: expressed in transfected cells; host or cells: EW29 cells
T2 sequence (P25961 27-591): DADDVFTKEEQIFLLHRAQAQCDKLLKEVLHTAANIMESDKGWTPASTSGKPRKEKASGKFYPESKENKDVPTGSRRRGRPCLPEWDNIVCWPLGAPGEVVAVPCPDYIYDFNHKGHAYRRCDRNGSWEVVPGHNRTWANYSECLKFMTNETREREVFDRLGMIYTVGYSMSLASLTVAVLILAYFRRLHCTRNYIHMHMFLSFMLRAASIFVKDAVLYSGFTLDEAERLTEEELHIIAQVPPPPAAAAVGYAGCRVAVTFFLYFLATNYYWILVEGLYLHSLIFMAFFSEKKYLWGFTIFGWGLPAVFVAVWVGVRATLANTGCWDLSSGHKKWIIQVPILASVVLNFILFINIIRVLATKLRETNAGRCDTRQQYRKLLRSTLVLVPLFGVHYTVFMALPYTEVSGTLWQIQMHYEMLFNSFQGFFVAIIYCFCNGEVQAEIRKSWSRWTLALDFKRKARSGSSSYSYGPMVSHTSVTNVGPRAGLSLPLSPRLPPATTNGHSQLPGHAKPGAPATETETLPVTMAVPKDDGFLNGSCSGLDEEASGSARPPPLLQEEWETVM
Experimental: as §3

bioavailability ([1]; male, SD, rat, plasma, sc, 80 μg/kg, subcutaneous route, read-out: BA) [%]	Cmax ([1]; rat, in vivo, sc, subcutaneous, 80 μg/mL at 1 mL/kg) [ng/mL]	AUC ([1]; rat, in vivo, sc, subcutaneous, 80 μg/mL at 1 mL/kg, read-out: AUC) [ng·h/mL]	MRT ([1]; rat, in vivo, sc, subcutaneous, 80 μg/mL at 1 mL/kg, read-out: MRT) [min]	Tmax ([1]; rat, in vivo, sc, subcutaneous, 80 μg/mL at 1 mL/kg, read-out: Tmax) [min]	half-life ([1]; rat, in vivo, sc, subcutaneous, 80 μg/mL at 1 mL/kg, read-out: t ½ (converted)) [min]	BA ([1]; subcutaneous route)	AUC ([2]; read-out: AUC) [ng·h/mL]	clearance ([2]; read-out: Cltotal (converted)) [mL/min/kg]	MRT ([2]; read-out: MRT) [min]	half-life ([2]; read-out: t½ (converted)) [min]	Maximum cAMP response (human PTH1 receptors) [pmol/well]	EC50 (human PTH1 receptors; cAMP production) [nM]	Maximum cAMP response (rat PTH1 receptors) [pmol/well]	EC50 (rat PTH1 receptors; cAMP production) [nM]	Compound
13.6	5.55	2.94	32.8	11.6	20.9	about 13.6%	21.7	61.7	12.7	13.9	–	–	–	–	CC[C@H](C)[C@H](NC(=O)[C@H](CCC(=O)O)NC(=O)[C@H](CO)NC(=O)[C@@H](NC(=O)[C@@H](N)CO)C(C)C)C(=O)N[C@@H](CCC(N)=O)C(=O)N[C@@H](CC(C)C)C(=O)N[C@@H](CCSC)C(=O)N[C@@H](Cc1cnc[nH]1)C(=O)N[C@@H](CC(N)=O)C(=O)N[C@@H](CC(C)C)C(=O)NCC(=O)N[C@@H](CCCCN)C(=O)N[C@@H](Cc1cnc[nH]1)C(=O)N[C@@H](CC(C)C)C(=O)N[C@@H](CC(N)=O)C(=O)N[C@@H](CO)C(=O)N[C@@H](CCSC)C(=O)N[C@@H](CCC(=O)O)C(=O)N[C@@H](CCCN=C(N)N)C(=O)N[C@H](C(=O)N[C@@H](CCC(=O)O)C(=O)N[C@@H](Cc1c[nH]c2ccccc12)C(=O)N[C@@H](CC(C)C)C(=O)N[C@@H](CCCN=C(N)N)C(=O)N[C@@H](CCCCN)C(=O)N[C@@H](CCCCN)C(=O)N[C@@H](CC(C)C)C(=O)N[C@@H](CCC(N)=O)C(=O)N[C@@H](CC(=O)O)C(=O)N[C@H](C(=O)N[C@@H](Cc1cnc[nH]1)C(=O)N[C@@H](CC(N)=O)C(=O)N[C@@H](Cc1ccccc1)C(=O)O)C(C)C)C(C)C [hPTH(1-34), reference compound]
–	–	–	–	–	–	–	–	–	–	–	109.3 ± 10.1	0.5	52.2 ± 12.3	2.2	2 k PEG-[Cys^35]-hPTH(1-35): [Cys^35]-PTH(1-35) conjugated with mPEG 2 k-MAL (2 kDa methoxy-PEG-maleimide) at the C-terminal cysteine (SVSEIQLMHNLGKHLNSMERVEWLRKKLQDVHNFC; Parathyroid hormone 2 kDa mPEG-maleimide at Cys35; UniProt P01270 32-66, looked up, variant V35C)
